Reference: ChEMBL document CHEMBL1139161, “[d4U]-butyne-[HI-236] as a non-cleavable, bifunctional NRTI/NNRTI HIV-1 reverse-transcriptase inhibitor” (Bioorg Med Chem Lett, 2007)

Tests used:
MT2 = assay: Cytotoxicity against human MT2 cells; format: cell-based
[1] = Therapeutic index, ratio of IC50 for human MT2 cells to EC50 for HIV1 3B; format: cell-based; conditions: read-out: Ratio IC50/EC50
[2] = tested on: Human immunodeficiency virus 1; assay: Antiviral activity against HIV1 3B in MT2 cells assessed as inhibition of viral-mediated T-cell death by MTT method; format: functional, organism-based; conditions: Human immunodeficiency virus 1, 3B

SMILES	IC50 (MT2) [nM]	selectivity ratio [1]	EC50 [2] [nM]
Cc1cn([C@H]2C=C[C@@H](CO)O2)c(=O)[nH]c1=O [STAVUDINE]	> 100000	> 50	2000
COc1ccc(OCCC#Cc2cn(C3C=CC(CO)O3)c(=O)[nH]c2=O)c(CCNC(=S)Nc2ccc(Br)cn2)c1 (configuration not stated)	17000	68	250
COc1ccc(OC)c(CCNC(=S)Nc2ccc(Br)cn2)c1	> 1000	> 24	42
C#CCCOc1ccc(OC)cc1CCNC(=S)Nc1ccc(Br)cn1	> 1000	> 44	23
